{"source": "patent US20190212343A1", "about": "“METHODS FOR THE TREATMENT OF DISORDERS RELATED TO PHOSPHORYLATION OF HISTONES” (H. LEE MOFFITT CANCER CENTER AND RESEARCH INSTITUTE, INC., priority 2014, published 2019)", "key": {"AR mRNA": {"test_system": "AR mRNA", "test": "AR mRNA levels in androgen-deprived prostate cancer cells (qPCR with AR primers)", "format": "cell-based, human", "conditions": "androgen-deprived LAPC4 and LNCaP cells, overnight treatment"}, "PSA mRNA": {"test_system": "PSA mRNA", "test": "PSA mRNA levels in androgen-deprived prostate cancer cells (qPCR with PSA primers)", "format": "cell-based, human", "conditions": "overnight treatment", "description": "(FIG. 7A) VCaP and (FIG. 7B) LNCaP cells were grown in absence of androgen and were overnight treated with DZI-067 (7 uM in VCaP, 2.5 & 5 uM in LnCaP), AIM-100 (7 uM), PLX4032 (7 uM), Casodex, Enzalutamide (10 uM) and DHT (10 nM, 3 Hr). Total RNA was isolated followed by qPCR with AR primers. VCaP, *p=0.022, **p=0.018; LNCaP, *p=0.042, **p=0.047, ***p=0.029. (FIG. 7C) VCaP and (FIG. 7D) LNCaP cells were grown in absence of androgen and were overnight treated with DZ1-067 (7 uM in LAPC4, 2.5 & 5 uM in LnCaP), AIM-100 (7 uM), PLX4032 (7 uM), Casodex, Enzalutamide (10 uM) and DHT (10 nM, 3 Hr). Total RNA was isolated followed by qPCR with PSA primers."}, "[1]": {"test_system": "H4 Y88-phosphorylation (ACK1)", "test": "Endogenous H4 pY88-phosphorylation in LNCaP cells (pY88-H4 immunoprecipitation / H4 immunoblot)", "format": "cell-based, human", "conditions": "16 hrs", "description": "FIGS. 9A-9E show ACK1 phosphorylates histone H4 at Tyrosine 88. (FIG. 9A) peptide were spotted followed by immunoblotting with indicated antibodies. (FIG. 9B) Equimolar amounts of purified ACK1 and H4 proteins were incubated in the presence of AIM-100 (100 nM) and reaction subjected to immunoblotting with pTyr antibodies. (FIG. 9C) In vitro kinase assay performed using purified ACK1 and H4, followed by immunoblotting with pY88-H4 antibodies. (FIG. 9D) H4 Y88-phosphorylation in vivo. LNCaP cells were treated with DZI-067, AIM-100 or Enzalutamide (7 uM, 16 hrs). The nuclear lysates were immunoprecipitated with pY88-H4 antibodies followed by immunoblotting with H4. Lower panel is input lysate. (FIG. 9E) LNCaP cells were treated with Crizotinib (1 uM, 16 hrs). The cell lysates were immunoprecipitated with pY88-H4 antibodies followed by immunoblotting with H4 (upper panel).\nTo explore the sensitivity of endogenous H4 pY88-phosphorylation to ACK1 inhibitor, LNCaP cells were treated with DZI-067, AIM-100 or Enzalutamide.\nApplicant also assessed the sensitivity of endogenous H4 pY88-phosphorylation to small molecule inhibitor, Crizotinib, also known as Xalkori (Pfizer). […] It is approved for treatment of some non-small cell lung carcinoma (NSCLC)."}, "CRPC patients": {"test_system": "CRPC patients", "conditions": "cited from earlier work"}, "AR protein levels": {"test_system": "AR protein levels", "test": "AR protein levels in androgen deprived prostate cancer cells (immunoblotting)", "format": "cell-based, human", "conditions": "LNCaP cells, MG 132 10 uM 6 hr, in presence or absence of AIM-100", "description": "(FIG. 6A) Androgen starved LAPC4 cells were treated with DHT (10 nM, 16 Hrs), AIM-100, DZI-067, Enzalutamide or PLX4032 (7 uM, 36 Hr) and AR, pACK1 and Actin levels were determined by immunoblotting (IB). The relative level of AR is shown below. (FIG. 6B) Androgen deprived LNCaP and VCaP cell were untreated or treated with 2.5, 5 and 10 uM of AIM-100 and lysates were immunoblotted. The quantitation of AR expression is shown. (FIG. 6C) Androgen deprived LNCaP and VCaP cell were untreated or treated with 2.5, 5 and 10 uM of DZI-067 and lysates were immunoblotted. The quantitation of AR expression is shown. (FIG. 6D) LNCaP cells were transfected with control and Ack1 siRNAs followed by immunoblotting. (FIG. 6E) LNCaP cells treated with AIM-100 (7 uM, 16 hr) or MG 132 (10 uM, 6 hr) were immunoblotted with AR antibodies. […]\nAR has been known to interact with an ubiquitin E3 ligase, RNF6, causing AR ubiquitination, which in turn promoted AR transcriptional activity (Xu, K. et al. (2009) Cancer Cell 15(4):270-282). To determine whether post-translational modification has role to play in suppression of AR levels upon Ack1 kinase inhibition, LNCaP cells were treated with proteosomal inhibitor, MG-132 and AR levels were measured in presence or absence of AIM-100."}, "IDH2 transcript": {"test_system": "IDH2 transcript", "test": "Epigenetic marks and IDH2 transcript levels in melanoma cancer cells", "format": "cell-based, human"}, "WEE1": {"test_system": "WEE1", "conditions": "yeast and mammalian cells; cited from earlier work"}, "[2]": {"test_system": "WEE1 expressing cancer cell lines", "conditions": "cited from earlier work"}}, "note": "Residues, ends and D or L forms follow the SMILES beside them. *: point of attachment. Cbz = O=C(OCc1ccccc1)*"}
{"smiles": "CC(O)(CS(=O)(=O)c1ccc(F)cc1)C(=O)Nc1ccc(C#N)c(C(F)(F)F)c1", "note": "(stereo not drawn) [Casodex]", "values": [{"measurement": "AR mRNA levels", "setting": "AR mRNA", "value": "no significant change in AR mRNA levels"}, {"measurement": "PSA mRNA levels", "setting": "PSA mRNA", "value": "significantly suppressed PSA mRNA levels"}]}
{"smiles": "C[C@@H](Oc1cc(-c2cnn(C3CCNCC3)c2)cnc1N)c1c(Cl)ccc(F)c1Cl", "note": "[Crizotinib]", "values": [{"measurement": "endogenous pY88-phosphorylation of H4", "setting": "[1]; 1 uM", "value": "significant loss of endogenous pY88-phosphorylation of H4"}]}
{"smiles": "C[C@]12CCC(=O)C[C@@H]1CC[C@@H]1[C@@H]2CC[C@]2(C)[C@@H](O)CC[C@@H]12", "note": "[DHT, dihydrotestosterone]", "values": [{"measurement": "AR mRNA levels", "setting": "AR mRNA", "value": "no significant change in AR mRNA levels"}, {"measurement": "endogenous pY88-phosphorylation of H4", "setting": "[1]; 7 uM", "value": "unaffected"}]}
{"smiles": "CNC(=O)c1ccc(N2C(=S)N(c3ccc(C#N)c(C(F)(F)F)c3)C(=O)C2(C)C)cc1F", "note": "[Enzalutamide]", "values": [{"measurement": "AR mRNA levels", "setting": "AR mRNA", "value": "no significant change in AR mRNA levels"}, {"measurement": "PSA mRNA levels", "setting": "PSA mRNA", "value": "significantly suppressed PSA mRNA levels"}, {"measurement": "endogenous pY88-phosphorylation of H4", "setting": "[1]; 7 uM", "value": "unaffected"}, {"measurement": "CRPC patients in whom treatment is effective", "setting": "CRPC patients", "value": "12 out of 30"}, {"measurement": "overall survival advantage", "setting": "CRPC patients", "value": "4-6 months"}, {"measurement": "time to relapse of the most responding patients", "setting": "CRPC patients", "value": "≤ 2", "unit": "years"}]}
{"smiles": "CC(C)C[C@@H](C=O)NC(=O)[C@H](CC(C)C)NC(=O)[C@H](CC(C)C)NC(=O)OCc1ccccc1", "note": "[MG-132] (Cbz-Leu-Leu-Leu-aldehyde)", "values": [{"measurement": "loss of AR caused by Ack1 kinase inhibition", "setting": "AR protein levels", "value": "did not prevent loss of AR"}]}
{"smiles": "C=CCn1c(=O)c2cnc(Nc3ccc(N4CCN(C)CC4)cc3)nc2n1-c1cccc(C(C)(C)O)n1", "note": "[MK-1775]", "values": [{"measurement": "IDH2 transcript levels", "setting": "IDH2 transcript", "value": "increasing IDH2 transcript levels"}, {"measurement": "WEE1 epigenetic marks", "setting": "IDH2 transcript", "value": "reversed epigenetic marks"}, {"measurement": "WEE1 epigenetic activity", "setting": "WEE1", "value": "inhibited WEE1 epigenetic activity"}, {"measurement": "histone transcriptional suppression", "setting": "WEE1", "value": "robustly reversed histone transcriptional suppression"}, {"measurement": "apoptosis", "setting": "[2]", "value": "selectively induces apoptosis"}]}
{"smiles": "CCCS(=O)(=O)Nc1ccc(F)c(C(=O)c2c[nH]c3ncc(-c4ccc(Cl)cc4)cc23)c1F", "note": "[PLX4032]", "values": [{"measurement": "AR mRNA levels", "setting": "AR mRNA", "value": "no significant change in AR mRNA levels"}]}
